Test results: patent publication US5883077A, “Inhibitors of factor Xa” (Corvas International, Inc., priority 1993, dated 1999)
Square brackets hold non-standard residues; d marks the D form. Peptide text beside a SMILES is read from it. * marks the point of attachment. d2Nal = N[C@H](Cc1ccc2ccccc2c1)C(=O)O; dPhg = N[C@@H](C(=O)O)c1ccccc1; Boc = CC(C)(C)OC(=O)*

Columns and labels:
Type in all cases: biochemical
[1] = target: T1, Human factor Xa (Homo sapiens, UniProt P00742); assay: Factor Xa assay, chromogenic substrate S2765; details: taken as 100 for each inhibitor by definition
T1 construct: purchased Enzyme Research Laboratories
T1 sequence (P00742 235-488 limits assumed): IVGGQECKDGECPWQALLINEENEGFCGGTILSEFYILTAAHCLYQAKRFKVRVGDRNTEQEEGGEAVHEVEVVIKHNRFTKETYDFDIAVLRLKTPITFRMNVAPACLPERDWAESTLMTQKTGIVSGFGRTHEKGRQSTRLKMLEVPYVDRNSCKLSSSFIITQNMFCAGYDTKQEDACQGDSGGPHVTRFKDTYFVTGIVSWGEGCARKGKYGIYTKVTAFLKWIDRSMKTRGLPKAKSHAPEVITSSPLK
T1 sequence (P00742 41-179 partner limits assumed): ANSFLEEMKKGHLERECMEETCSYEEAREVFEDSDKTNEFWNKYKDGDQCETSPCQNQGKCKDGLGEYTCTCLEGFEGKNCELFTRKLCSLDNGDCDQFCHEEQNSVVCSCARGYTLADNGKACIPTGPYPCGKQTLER
Protocol: (§1) To assay their activities, the compounds of the present invention are dissolved in buffer to give solutions containing concentrations ranging under assay concentrations from 0 to about 100 μM. The enzyme to be tested is then added to a solution containing a specified concentration of the test compound. Then after an incubation period, synthetic substrate for the enzyme being tested is added. The rate of substrate turnover is determined spectrophotometrically. The IC50 of the test compound is determined for each test compound in assays for factor xa, factor XIa, thrombin and tPA. IC50 is that concentration of test compound giving 50% inhibition of the substrate turnover. Percent selectivity is used to indicate selectivity of a compound in inhibiting Factor Xa in comparison with either Factor XIa, thrombin or tPA. Percent selectivity of a particular compound for either Factor XIa, thrombin or tPA refers to a number obtained by dividing the product of one hundred and the IC50 of the compound for Factor Xa by the IC50 of the compound for either Factor XIa, thrombin or tPA.
(§2) The specificity of the peptide aldehydes through was determined in vitro by measurement of their IC50 against factor Xa, factor XIa, thrombin and tissue plasminogen activator (tPA). Peptide aldehyde which has been described in the art was run as a comparison. A specific concentration of enzyme and its substrate were challenged with varying concentrations of inhibitor. IC50 is that concentration of inhibitor giving 50% inhibition of catalytic activity, under the assay conditions. Specific assay procedures used are presented below.
Enzyme activity was determined using as substrate, S2765 (N-α-benzyloxycarbonyl-D-argininyl-L-glycyl-L-arginine-p-nitroanilide dihydrochloride) which was obtained from Kabi Diagnostica. The substrate was made up in deionized water prior to use.
Human factor Xa was obtained from Enzyme Research Laboratories. The enzyme was diluted into TBSA prior to use.
(§3) The assay was run by combining in appropriate wells 50 μL of TBSA, 50 μL of inhibitor in TBSA or TBSA (as negative control) and 50 μL of 2 nM human Factor Xa or TBSA (as background control). After incubating this mixture for 60 minutes at room temperature, 50 μL of 1 mM S-2765 was added to each well and the initial rate of the change of the optical density at 405 nm (OD405nm) for each well was determined. OD405nm was measured every 10 seconds for 5 minutes.

[2] = target: T2, Human factor XIa (Homo sapiens, UniProt P03951); assay: Factor XIa assay, chromogenic substrate S2366; details: 100 times the IC50 for factor Xa divided by the IC50 of factor XIa
T2 construct: purchased Enzyme Research Laboratories, Inc
T2 sequence (P03951 388-625 limits assumed): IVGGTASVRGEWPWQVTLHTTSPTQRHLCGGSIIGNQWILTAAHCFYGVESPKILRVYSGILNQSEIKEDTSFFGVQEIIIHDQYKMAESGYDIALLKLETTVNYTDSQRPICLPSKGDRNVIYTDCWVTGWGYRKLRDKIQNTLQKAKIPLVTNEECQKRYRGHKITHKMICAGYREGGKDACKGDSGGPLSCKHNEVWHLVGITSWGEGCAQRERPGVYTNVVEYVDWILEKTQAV
T2 sequence (P03951 19-387 partner limits assumed): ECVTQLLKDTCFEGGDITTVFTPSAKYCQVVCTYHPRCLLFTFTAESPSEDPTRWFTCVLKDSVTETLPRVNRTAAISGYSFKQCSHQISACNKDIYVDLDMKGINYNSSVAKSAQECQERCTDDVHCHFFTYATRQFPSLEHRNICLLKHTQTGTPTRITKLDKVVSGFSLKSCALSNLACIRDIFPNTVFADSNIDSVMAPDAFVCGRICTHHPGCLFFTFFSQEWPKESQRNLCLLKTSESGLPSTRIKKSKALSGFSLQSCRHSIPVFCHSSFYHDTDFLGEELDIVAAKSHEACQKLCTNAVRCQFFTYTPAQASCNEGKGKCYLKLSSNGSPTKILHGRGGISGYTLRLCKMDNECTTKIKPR
Protocol: as §1, §2
Enzyme activity was determined using as substrate, S2366 (L-pyroglutamyl-L-prolyl-L-arginine-p-nitroanilide hydrochloride) which was obtained from Kabi Diagnostica. The substrate was made up in deionized water prior to use.
Human factor XIa was obtained from Enzyme Research Laboratories, Inc. The enzyme was diluted into TBSA prior to use.
as §3, with “Factor XIa” for “Factor Xa”, “of 6” for “of 1”, “mM S-2366” for “mM S-2765”

[3] = target: T3, Human recombinant t-PA (Activase®) (Homo sapiens, UniProt P00750); assay: tPA assay, chromogenic substrate Pefachrome tPA; details: 100 times the IC50 for factor Xa divided by the IC50 of tPA
T3 construct: purchased Genentech, Inc
T3 sequence (P00750 36-562): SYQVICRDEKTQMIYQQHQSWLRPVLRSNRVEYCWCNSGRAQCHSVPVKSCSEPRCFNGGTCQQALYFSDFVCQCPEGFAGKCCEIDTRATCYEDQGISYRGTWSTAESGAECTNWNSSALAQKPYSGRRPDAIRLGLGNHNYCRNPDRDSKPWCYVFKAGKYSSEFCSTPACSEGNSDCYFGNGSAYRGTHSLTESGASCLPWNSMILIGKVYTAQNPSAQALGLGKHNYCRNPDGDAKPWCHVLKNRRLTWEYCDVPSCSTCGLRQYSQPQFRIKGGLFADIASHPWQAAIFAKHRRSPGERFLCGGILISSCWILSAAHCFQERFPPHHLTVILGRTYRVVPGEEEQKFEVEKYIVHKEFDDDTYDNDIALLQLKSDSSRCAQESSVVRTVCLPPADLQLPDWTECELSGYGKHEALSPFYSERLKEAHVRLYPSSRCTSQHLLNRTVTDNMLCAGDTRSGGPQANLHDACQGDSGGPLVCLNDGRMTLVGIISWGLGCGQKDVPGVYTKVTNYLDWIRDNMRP
Protocol: as §1, §2
Enzyme activity was determined using as substrate, Pefachrome tPA (O-methylsulfonate-D-hexahydrotyrosine-L-glycyl-L-argini ne-p-nit roanilide acetate salt) which was obtained from Centerchem, Inc. The substrate was made up in deionized water prior to use.
Human recombinant t-PA (Activase®) was obtained from Genentech, Inc. The enzyme was reconstituted with water, then diluted into TBSA prior to use.
The assay was run by combining in appropriate wells 50 μL of TBSA, 50 μL of inhibitor in TBSA or TBSA (as negative control) and 50 μL of 4 nM human recombinant tPA or TBSA (as background control). After incubating this mixture for 60 minutes at room temperature, 50 μL of 4 mM Pefachrome tPA was added to each well and the initial rate of the change of optical density at 405 nm (OD405nm) for each well was determined. OD405nm was measured every 10 seconds for 5 minutes.

[4] = target: T4, Human α-thrombin (Homo sapiens, UniProt P00734); assay: Thrombin assay, chromogenic substrate S2238; details: 100 times the IC50 for factor Xa divided by the IC50 of thrombin
T4 construct: Human α-thrombin was obtained from Enzyme Research Laboratories, Inc; purchased Enzyme Research Laboratories, Inc
Protocol: as §1, §2
Enzyme activity was determined using as substrate, S2238 (D-phenylalanyl-L-pipecolyl-L-arginine-p-nitroanilide dihydrochloride) which was obtained from Kabi Diagnostica. The substrate was made up in deionized water prior to use.
Human α-thrombin was obtained from Enzyme Research Laboratories, Inc. The enzyme was diluted into TBSA prior to use.
The assay was run by combining in appropriate wells 50 μL of TBSA, 50 μL of inhibitor in TBSA or TBSA (as negative control) and 50 μL of 4 nM human α-thrombin or TBSA (as background control). After incubating this mixture for 60 minutes at room temperature, 50 μL of 0.24 mM S-2238 was added to each well and the initial rate of the change of optical density at 405 nm (OD405nm) for each well was determined. OD405nm was measured every 10 seconds for 5 minutes.

SMILES	Percent Selectivity Xa [1]	Percent Selectivity XIa [2]	Percent Selectivity tPA [3]	Percent Selectivity Thrombin [4]
CC(C)(C)OC(=O)N[C@H](Cc1ccccc1)C(=O)N1CC[C@H](c2ccccc2)[C@H]1C(=O)N[C@H](C=O)CCCNC(=N)N (relative stereo) [[10], N-t-butoxycarbonyl-D-phenylalanyl-L-(3-trans-phenyl)prolinyl-L-argininal]	100	< 2.5	< 2.5	< 2.5
CC(C)(C)OC(=O)N[C@H](Cc1ccc2ccccc2c1)C(=O)N[C@@H](Cc1ccccc1)C(=O)N[C@H](C=O)CCCNC(=N)N [[1], N-t-butoxycarbonyl-D-3-(2-naphthyl)alanyl-L-phenylalanyl-L-araininal] (Boc-[d2Nal]-Phe-Arg-aldehyde)	100	1.4	< 0.9	1.6
CC(C)(C)OC(=O)N[C@@H](C(=O)N[C@@H](Cc1ccccc1)C(=O)N[C@H](C=O)CCCNC(=N)N)c1ccccc1 [[2], N-t-butoxycarbonyl-D-2-phenylglycyl-L-phenylalanyl-L-araininal] (Boc-[dPhg]-Phe-Arg-aldehyde)	100	4.9	< 2.6	< 2.6
CC(C)(C)OC(=O)N[C@H](Cc1ccccc1)C(=O)N[C@@H](Cc1ccccc1)C(=O)N[C@H](C=O)CCCNC(=N)N [[4], N-t-butoxycarbonyl-D-phenylalanyl-L-phenylalanyl-L-argininal] (Boc-[dF]-Phe-Arg-aldehyde)	100	0.8	< 0.8	< 0.8
CC(C)(C)OC(=O)NC(C(=O)N[C@@H](Cc1cccc2ccccc12)C(=O)N[C@H](C=O)CCCNC(=N)N)c1ccc(-c2ccccc2)cc1 (stereo partly drawn) [[7], N-t-butoxycarbonyl-D,L-(α-biphenyl)qlycyl-L-3-(1-naphthyl)alanyl-L-argininal]	100	< 10	< 10	< 10
